Results: patent publication US20130150346A1, “Use of FAAH Inhibitors for Treating Parkinson's Disease and Restless Legs Syndrome” (Ironwood Pharmaceutical, Inc., priority 2010, published 2013)

Tests used:
MPTP-lesioned marmosets [1] = assay: Motor activity (passive infra-red sensors: total activity, high activity counts and time) in MPTP-lesioned marmosets; format: in vivo, common marmosets (Callithrix jacchus)
Method: (§1) Six common marmosets (Callithrix jacchus; female; weight, 350-500 g (Harlan, Madison, Wis., USA)) were kept under conditions of controlled temperature (25±2° C.) and a 12-hour light/dark cycle (lights on 6:30 a.m.). Animals were group housed and had access to food, fresh-fruit supplements and water ad libitum and their home cage environment was enriched with primate toys, perches and auditory stimuli. Prior to start of studies, animals were acclimatized to handling, blood collection and administration of treatments (oral syringe feeding and subcutaneous injection) as well as transfer to observation cages for assessment of behavior. A parkinsonian syndrome was induced by once-daily subcutaneous administration of MPTP hydrochloride (Sigma, Canada; 2 mg/kg base concentration in 0.9% saline) for 5 consecutive days. Following this, animals were allowed to recover for 12 weeks to allow parkinsonian symptoms to develop and stabilize. […] Treatment-related complications including dyskinesia and psychosis-like behaviors were evoked by twice-daily treatment with L-DOPA p.o. (as Prolopa®, Roche Canada, Ontario, equivalent to 15 mg/kg L-DOPA and 3.5 mg/kg benserazide) for a minimum of 30 days. […] Disord. 21:839-846; Visanji et al. (2008) Mov. Disord. 23:1922-1925; Visanji et al (2009) Neurobiol Dis. 35: 184-192]. After this time, the animals were used in several studies to evaluate potential anti-parkinsonian and anti-dyskinetic agents. A minimum period of two weeks was allowed between completing any prior study and commencing this study, a period in excess of ten half-lives since administration of any previously employed experimental drug. Throughout the course of the study, on days not requiring plasma sampling or behavioral observations, animals were treated once daily with oral L-DOPA therapy, given at 10:00 a.m. to maintain stable levels of complications. Marmosets treated with MPTP as described in this example are referred to as MPTP-lesioned marmosets.
(§2) To assess the effect of treatment on plasma FAAH substrate level, total activity, high activity time and count, data were analyzed using a parametric repeated-measures (RM) 1-way analysis of variance (ANOVA) followed by a Student Newman-Keuls Multiple Comparison post hoc test. To assess the effect of treatment on plasma L-DOPA level a paired, two-tailed t-test was used. All FAAH (AEA, OEA, PEA) subbstrate and L-DOPA plasma level data and activity data are presented as the group mean and SEM For measures of parkinsonian disability, dyskinesia and psychosis, data were analyzed via Friedman's test with Dunn's Multiple Comparison post hoc test. […] In all cases, p<0.05 was taken to represent a significant difference.
(§3) MPTP hydrochloride (Sigma, Canada) was dissolved in 0.9% NaCl sterile solution to a concentration of 0.2 mg/ml (freebase) and administered at 1 ml/kg. Maintenance L-DOPA, administered as Prolopa® capsules (Roche, Mississauga, ON, Canada) containing 50 mg L-DOPA and 12.5 mg benserazide (freebase) was dissolved in Gatorade sports beverage (The Gatorade Company, Chicago, Ill.) prior to oral administration by syringe at a volume of 10 ml/kg. On days of behavioral assessment, L-DOPA (20 mg/kg, freebase) was prepared from the methyl ester form (Sigma, Canada) in combination with benserazide hydrochloride (5 mg/kg, freebase, Sigma, Canada) dissolved in 0.9% sterile saline containing 0.1% ascorbate (Sigma, Canada) and 0.05% absolute ethanol. URB597 (Cayman Chemical, Ann Arbor, Mich.) was formulated in a vehicle containing 50% corn oil (Professional Compounding Centers of America (PCCA), Houston, Tex.) and 50% nutritional drink Ensure™ (Abbott Nutrition, Chicago, Ill.) to make the suspension palatable for marmoset oral dosing. Requisite amounts of URB597 were weighed into sterile 50 ml polypropylene tubes (for the 3, 10, 30 and 60 mg/kg doses, 12, 40, 120 and 240 mg were weighed respectively). Then, 10 ml Corn oil was added and mixed until homogenous.

MPTP-lesioned marmosets [2] = assay: Rating of parkinsonian disability, dyskinesia and psychosis in MPTP-lesioned marmosets; format: in vivo, common marmosets (Callithrix jacchus); details: L-DOPA 20 mg/kg s.c. alone, summed 2-4 h
Method: as §1, §2, §3

MPTP-lesioned macaques = assay: Motor activity (total activity, high activity time and counts) in MPTP-lesioned macaques treated with URB597 and L-DOPA; format: in vivo, cynomolgus monkeys (Macaca fascicularis)
[3] = L-DOPA 20 mg/kg s.c. alone, 2-4 h, mean±SEM, n=6
[4] = L-DOPA 20 mg/kg s.c. alone, 2-4 h, p<0.001
[5] = L-DOPA 20 mg/kg s.c. alone, 2-4 h, p<0.05

## N[C@@H](Cc1ccc(O)c(O)c1)C(=O)O [L-DOPA, 3,4-dihydroxyphenylalanine]
MPTP-lesioned marmosets [1]; L-DOPA 20 mg/kg s.c. alone (vehicle p.o.), peak dose period 2-4 h, mean±SEM, n=6
  total activity counts: 2782±682 counts
MPTP-lesioned marmosets [1]; [3]
  high activity counts: 2170±778 counts
  high activity time: 53.3 ± 15.2 min
MPTP-lesioned marmosets [1]; [4]
  increase in high activity time compared to normal, non-MPTP-lesioned animals: 167%
  increase in total activity compared to vehicle (s.c.)-treated, MPTP-lesioned animals: 379%
MPTP-lesioned marmosets [1]; [5]
  increase in high activity counts compared to normal, non-MPTP-lesioned animals: 120%
  increase in total activity compared to non-treated, non-MPTP-lesioned (normal) animals: 77%
MPTP-lesioned marmosets [1]; L-DOPA 20 mg/kg s.c. alone, 6 h time course, 30 min intervals
  period following drug administration in which total activity was significantly increased compared to vehicle (s.c.)-treated animals: 3.5 h
MPTP-lesioned marmosets [2]; IQR 0-0 as printed, n=6
  psychosis score (median): 0
MPTP-lesioned marmosets [2]; IQR 10-29, n=6
  dyskinesia score (median): 20
MPTP-lesioned marmosets [2]; maximum 432, IQR 57-111, n=6
  parkinsonian disability score (median): 80
MPTP-lesioned macaques; L-DOPA p.o. (30 to 45 mg/kg), 1 to 3.5 hrs after administration
  total activity counts, high activity time and counts compared to normal, unlesioned macaques: higher
MPTP-lesioned macaques; L-DOPA p.o. alone, between 2 and 3 h after L-DOPA
  total activity counts, high activity time and high activity counts compared to normal macaques: significantly higher
